{"source": "patent US7479377B2", "about": "“Genetic construct intracellular monitoring system” (DiscoveRx Corporation, priority 2001, dated 2009)", "key": {"PL-PPARγ1": {"test_system": "PL-PPARγ1", "assay": "Proteosomal degradation of transiently expressed PL-PPAR (ED-EA complementation)", "format": "cell-based, human", "details": "for Amount of PL-PPARγ1: MG132 20 μM", "text": "pcDNA3.1-PL-PPAR construct was obtained in the two rounds of the cloning procedure. In the first round, the ED (55-mer) sequence was inserted into NheI and KpnI sites of the pcDNA3.1/zeo vector (Invitrogen). PPARg1 gene was obtained by PCR amplification of the human placenta cDNA library and in the second round of cloning was inserted into KpnI and NotI sites of the vector.\nProteosomal degradation of transiently expressed PL-PPAR protein was detected in NIH3T3, ECV304 and HeLa cells. Cells were transfected with pcDNA3.1-PL-PPAR and 24 hours after transfection medium was removed and cells were treated either with the vehicle (DMSO) or MG132 (proteosome inhibitor). Transfections were carried out in 6-well plates as described above. Cells were washed with PBS buffer, lysed in 480 uL of lysis buffer containing CHAPS (a mild detergent) and tested for ED-EA complementation in triplicates. Thirty microliters of the cell lysates were placed in the wells of 384-well plates. After that, 10 uL of EA solution were added and reaction of complementation was carried out for one hour at room temperature. Fifteen microliters of chemiluminescent substrate (0.4 mM Galacton-Star (Applied Biosystems, Bedford, Mass.) and 2 mg/ml Emerald II substrate (Applied Biosystems, Bedford, Mass.)) were added to the wells and the chemiluminescent signals were read using Chemiluminescent reader (Packard LumiCount, Packard Biosystems) (FIGS. 10A, 10B and 10C).\nPL-PPAR expression levels were tested in the presence of increasing concentrations of MG132 (FIG. 11). The experiment was done as described above, except that indicated concentrations of MG132 were employed."}, "[1]": {"test_system": "Hela cells stably expressing IkB-PL", "assay": "Cell Titer-Glo cell viability assay of Hela-IkB cells with EGF", "format": "cell-based", "details": "0.5% FBS, serial dosage of rhEGF, 72 hours, FIG. 17", "experimental": "Hela cells stably expressing IkB-PL were used. To confirm the cells response to EGF, the cell viability assay was performed. Hela-IkB cells were seeded in DMEM with 0.5% FBS in 96 well plate with a density of 5000 cells per well, exposing to a serial dosage of rhEGF. 72 hours later, cell viability assay was performed using the Cell Titer-Glo luminescence Cell Viability assay kit (Promega). […] (FIG. 17)."}, "endogenous IL-1 receptor": {"target": "T1, endogenous IL-1 receptor (Homo sapiens, UniProt P14778)", "T1 construct": "endogenous in cells; host or cells: HeLa cells transiently transfected with pCMV-IkB-ED or pCMV-IkB M-ED as reporter", "T1 sequence (P14778 18-569)": "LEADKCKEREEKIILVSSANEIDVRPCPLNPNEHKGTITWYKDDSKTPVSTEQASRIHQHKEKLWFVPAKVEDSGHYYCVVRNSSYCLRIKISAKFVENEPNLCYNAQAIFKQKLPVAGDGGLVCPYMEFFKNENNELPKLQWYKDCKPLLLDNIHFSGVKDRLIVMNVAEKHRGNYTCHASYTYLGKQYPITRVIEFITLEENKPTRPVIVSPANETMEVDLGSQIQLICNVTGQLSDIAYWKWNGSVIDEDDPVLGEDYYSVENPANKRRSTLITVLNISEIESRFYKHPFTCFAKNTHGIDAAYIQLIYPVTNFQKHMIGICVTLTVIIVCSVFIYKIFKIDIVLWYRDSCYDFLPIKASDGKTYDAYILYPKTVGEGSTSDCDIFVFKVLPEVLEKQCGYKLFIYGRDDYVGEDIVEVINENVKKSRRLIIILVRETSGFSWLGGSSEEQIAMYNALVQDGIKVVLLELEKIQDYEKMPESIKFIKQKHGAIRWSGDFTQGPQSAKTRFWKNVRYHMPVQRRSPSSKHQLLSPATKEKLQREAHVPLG", "T1 sequence (Q9NPH3 21-570 partner)": "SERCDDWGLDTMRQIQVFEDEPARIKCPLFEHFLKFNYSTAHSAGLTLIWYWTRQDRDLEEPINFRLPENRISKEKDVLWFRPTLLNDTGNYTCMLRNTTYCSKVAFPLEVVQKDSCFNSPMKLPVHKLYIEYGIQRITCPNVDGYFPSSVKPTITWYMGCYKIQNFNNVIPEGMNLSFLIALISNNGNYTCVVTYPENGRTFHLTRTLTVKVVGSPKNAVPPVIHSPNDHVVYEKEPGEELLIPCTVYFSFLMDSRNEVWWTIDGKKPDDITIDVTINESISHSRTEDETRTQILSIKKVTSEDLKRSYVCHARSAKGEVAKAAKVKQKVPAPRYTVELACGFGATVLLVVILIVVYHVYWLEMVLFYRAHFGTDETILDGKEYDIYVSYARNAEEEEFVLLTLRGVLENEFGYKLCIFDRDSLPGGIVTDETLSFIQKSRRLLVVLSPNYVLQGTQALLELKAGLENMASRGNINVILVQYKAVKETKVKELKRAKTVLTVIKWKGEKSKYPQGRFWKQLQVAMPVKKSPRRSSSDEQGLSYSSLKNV", "assay": "IL-1-induced IκB-ED degradation in HeLa cells", "format": "cell-based", "details": "IL-1 at various concentrations for 30 min", "experimental": "(§1) HeLa cells were seeded into 24 well plate 24 hr before transfection. 0.25 μg DNA was transfected into each well using Fugene6 (Roche) following manufacture's protocol. 24 hr after transfection, cells were subjected to treatment of TNFα (Sigma) at various concentrations for 30 min. Then the culture medium was removed, and cells were lysed in 90 μl of cell lysis buffer. […] Assay was performed in three replicates. The plate was incubated at room temperature for 30 min before addition of 15 μl chemiluminescence substrate. Plate was read 30 min after substrate addition. The untreated cells were normalized to 100% activity. […] In addition, the IκB-ED degradation was specifically linked to the upstream component activation. Also confirmed was that the IκB-ED degradation was dependent on IκB phosporylation at 32 and 36 residues, the same way as un-tagged IκB.\nIt has been reported that IL-1 activation of cells results in NF-κB pathway activation through the induced degradation of IκB. To confirm that the ED labeled IκB in cells was able to monitor IL-1 pathway activation, HeLa cells was transiently transfected with pCMV- IκB -ED or pCMV- IκB M-ED the same way as described above in 24 well plates. Cells were then treated with IL-1 (Sigma) at various concentrations for 30 min then assayed for ED activity."}, "IκB-ED": {"test_system": "IκB-ED", "assay": "TNFα-induced IκB-ED degradation in HeLa cells (ED/EA complementation, chemiluminescence)", "format": "cell-based", "details": "TNFα at various concentrations for 30 min", "experimental": "For transient transfection, cells were seeded into 6 well plate one day before experiment. For each well, 3 μl of Fugene 6 (Roche, Ind.) was diluted into 100_μl of serum free medium, and then 1_μg of plasmid DNA was added. The mixture was incubated at room temperature for 15 min before addition into wells dropwise. The plate was then incubated at 37° C. till the assay.\nas §1"}, "[2]": {"target": "T2, human chemokine CCR3 receptor (Homo sapiens, UniProt P51677)", "T2 sequence (P51677 1-355)": "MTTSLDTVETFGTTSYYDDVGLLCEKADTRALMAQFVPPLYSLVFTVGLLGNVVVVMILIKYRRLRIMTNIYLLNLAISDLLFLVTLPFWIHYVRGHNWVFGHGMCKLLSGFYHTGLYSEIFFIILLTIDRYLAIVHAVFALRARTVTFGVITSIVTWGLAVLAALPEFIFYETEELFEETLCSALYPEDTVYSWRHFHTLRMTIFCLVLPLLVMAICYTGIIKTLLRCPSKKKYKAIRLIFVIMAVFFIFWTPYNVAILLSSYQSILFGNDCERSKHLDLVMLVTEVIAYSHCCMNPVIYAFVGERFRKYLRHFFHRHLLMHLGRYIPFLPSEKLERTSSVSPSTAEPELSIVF", "assay": "CCR3 activation leads to IkB-PL degradation in CHO-K1 cells", "format": "cell-based", "details": "CHO-K1 cells expressing CCR3, transfected with PCMV-IkB-PL; 30 min; FIG. 16", "experimental": "CHO-K1 cells stably expressing human chemokine CCR3 receptor was obtained from Euroscreen. […] Cells were seeded in 6-well plates one day before transfection. PCMV-IkB-PL was transiently transfected into CHO MC4 cells using Fugene6 following manufacturer's protocol. […] (FIG. 16)."}, "[3]": {"details": "HeLa cells transfected with pCMV-IκB M-ED"}, "[4]": {"details": "HeLa cells transfected with pCMV-IκB-ED"}}, "note": "Peptide text beside a SMILES is read from it. * marks the point of attachment. Cbz = O=C(OCc1ccccc1)*", "data": [{"molecule": "CC(C)C[C@@H](C=O)NC(=O)[C@H](CC(C)C)NC(=O)[C@H](CC(C)C)NC(=O)OCc1ccccc1", "note": "[MG132] (Cbz-Leu-Leu-Leu-aldehyde)", "values": [{"measurement": "Amount of PL-PPARγ1", "setting": "PL-PPARγ1; ECV304 cells, FIG. 10B", "value": "enhancement of the amount of PL-PPARγ1"}, {"measurement": "Amount of PL-PPARγ1", "setting": "PL-PPARγ1; HeLa cells, FIG. 10C", "value": "enhancement of the amount of PL-PPARγ1"}, {"measurement": "Amount of PL-PPARγ1", "setting": "PL-PPARγ1; NIH3T3 cells, FIG. 10A", "value": "enhancement of the amount of PL-PPARγ1"}, {"measurement": "PL-PPAR expression level with increasing concentrations of MG132", "setting": "PL-PPARγ1; increasing concentrations of MG132, FIG. 11", "value": "Dose-Dependent Increase"}]}, {"molecule": "EGF (NSDSECPLSHDGYCLHDGVCMYIEALDKYACNCVVGYIGERCQYRDLKWWELR)", "values": [{"measurement": "Viable cell numbers", "setting": "[1]", "value": "responded to the EGF induction in a dosage dependent manner"}]}, {"molecule": "IL-1", "values": [{"measurement": "Degradation of mutant IκB M-ED", "setting": "endogenous IL-1 receptor; [3]", "value": "resistant to IL-1 induced degradation"}, {"measurement": "IκB-ED activity", "setting": "endogenous IL-1 receptor; [4]", "value": "decreased upon IL-1 treatment in a dose dependent manner"}]}, {"molecule": "TNFα", "values": [{"measurement": "ED activity of mutant IκB M-ED", "setting": "IκB-ED; [3]", "value": "did not show a dose dependent decrease of ED activity"}, {"measurement": "ED activity of IκB-ED (degradation of wild type IκB)", "setting": "IκB-ED; [4]", "value": "decrease the ED activity in a dose dependent manner"}]}, {"molecule": "eotaxin", "values": [{"measurement": "IkB-PL degradation upon CCR3 activation", "setting": "[2]", "value": "activation of the chemokine receptor CCR3 leading to IkB-PL degradation"}]}]}
